Laboratory results reported in patent publication US4816562A, “Novel substrate for plasma kallikrein and a method for measuring biological components using the same” (Nitto Boseki Co., Ltd., priority 1985, dated 1989).
Values joined by “and” are separate entries in the source; they are usually repeats but may differ in a detail not shown here. Equal entries are not always repeated. Where a SMILES comes first, the peptide text is derived from it. [ ]: non-standard residue; d: D form. The star is where a group is joined. pNA = O=[N+]([O-])c1ccc(N*)cc1

How the values were obtained:
[1] = target: T1, Plasmin (PL) (Homo sapiens, UniProt P00747); experiment: Substrate specificity: reaction of chromogenic substrates with plasmin, absorbance read-out; type: biochemical; conditions: for Absorbance (O.D.) PL: S0 = 2.0 mM, 37° C., 5 minutes, pH 7.8; for Relative reactivity with PL: PS-2203N taken as 100, initial substrate concentration S0 = 2 mM; for Reactivity with plasmin: relative to Z-D-Orn-Phe-Arg-PNA (PS-2203N) as 100
T1 construct: purchased Green Cross Lot No. PL-35 (catalogue number not given)
Experimental: (§1) The specificities of the novel substrates synthesized above were examined by reacting them with various enzymes.
(§2) (1) Substrate solution: 2 mmoles/liter H2 O
(§3) (2) Buffer solution: Concentrations of Tris, NaCl and CaCl2 and pH value of reaction for every enzyme were as follows: […]
(§4) Into a silicone-treated test tube made of hard glass or a plastic were introduced 0.3 ml of a buffer solution and 0.1 ml of an enzyme reagent. After preheating them for 5 minutes in a thermostated bath kept at 37° C., 0.1 ml of substrate solution was added and an enzyme reaction was carried out at 37° C. for 5 minutes. When an exact five minutes had passed, 2.0 ml of the reaction stopper or the reaction-stopping color-forming reagent was added to stop the enzyme reaction, and subsequently the reaction mixture was allowed to stand at 37° C. for 10 minutes. Then, absorbance was measured at 405 nm or 700 nm.

[2] = target: T2, Thrombin (TH) (Bos taurus, UniProt P00735); experiment: Substrate specificity: reaction of chromogenic substrates with thrombin, absorbance read-out; type: biochemical, Bovine; conditions: for Absorbance (O.D.) TH: S0 = 2.0 mM, 37° C., 5 minutes, pH 8.5; for Relative reactivity with TH: PS-2203N taken as 100, initial substrate concentration S0 = 2 mM; for Reactivity with thrombin: relative to Z-D-Orn-Phe-Arg-PNA (PS-2203N) as 100
T2 construct: purchased Mochida Pharmaceutical Lot No. 65146 (catalogue number not given)
Experimental: as §1, §2, §3, §4

[3] = target: T3, Urokinase (UK) (Homo sapiens, UniProt P00749); experiment: Substrate specificity: reaction of chromogenic substrates with urokinase, absorbance read-out; type: biochemical; conditions: for Absorbance (O.D.) UK: S0 = 2.0 mM, 37° C., 5 minutes, pH 8.2; for Relative reactivity with UK: PS-2203N taken as 100, initial substrate concentration S0 = 2 mM
T3 construct: purchased Mochida Pharmaceutical Lot No. 2A-139 (catalogue number not given)
Experimental: as §1, §2, §3, §4

[4] = target: T4, Xa factor (FXa) (Bos taurus, UniProt P00743); experiment: Substrate specificity: reaction of chromogenic substrates with Xa factor, absorbance read-out; type: biochemical, Bovine; conditions: for Absorbance (O.D.) FXa: S0 = 2.0 mM, 37° C., 5 minutes, pH 8.3; for Relative reactivity with FXa: PS-2203N taken as 100, initial substrate concentration S0 = 2 mM; for Reactivity with Xa factor: relative to Z-D-Orn-Phe-Arg-PNA (PS-2203N) as 100
T4 construct: purchased Sigma Lot No. 73F-9450 (catalogue number not given)
Experimental: as §1, §2, §3, §4

[5] = target: T5, Plasma kallikrein (HPK) (Homo sapiens, UniProt P03952); experiment: Substrate specificity: reaction of chromogenic substrates with plasma kallikrein, absorbance read-out; type: biochemical; conditions: for Absorbance (O.D.) HPK: S0 = 2.0 mM, 37° C., 5 minutes, pH 9.0; for Relative reactivity with HPK: PS-2203N taken as 100, initial substrate concentration S0 = 2 mM
T5 construct: purchased AB Kabi Diagnostica Lot No. 3740152 (catalogue number not given)
Experimental: as §1, §2, §3, §4

[6] = target: T6, Glandular kallikrein (HGK) (Homo sapiens, UniProt P06870); experiment: Substrate specificity: reaction of chromogenic substrates with glandular kallikrein, absorbance read-out; type: biochemical, Human urine; conditions: for Absorbance (O.D.) HGK: S0 = 2.0 mM, 37° C., 5 minutes, pH 9.0; for Relative reactivity with HGK: PS-2203N taken as 100, initial substrate concentration S0 = 2 mM; for Reactivity with glandular kallikrein: relative to Z-D-Orn-Phe-Arg-PNA (PS-2203N) as 100
T6 construct: purchased Green Cross Lot No. 1003SM (catalogue number not given); host or cells: human urine
Experimental: as §1, §2, §3, §4

[7] = 700 nm (CHA substrates, pentaamine ferroate)

T5 sequence (P03952 391-638 limits assumed): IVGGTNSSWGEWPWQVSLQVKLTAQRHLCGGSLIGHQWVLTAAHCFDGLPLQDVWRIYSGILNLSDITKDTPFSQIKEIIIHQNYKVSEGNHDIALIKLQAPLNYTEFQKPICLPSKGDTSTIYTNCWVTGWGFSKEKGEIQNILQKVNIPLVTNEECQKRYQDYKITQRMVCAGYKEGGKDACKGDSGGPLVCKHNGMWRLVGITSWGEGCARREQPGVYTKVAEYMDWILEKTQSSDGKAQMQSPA
T5 sequence (P03952 20-390 partner limits assumed): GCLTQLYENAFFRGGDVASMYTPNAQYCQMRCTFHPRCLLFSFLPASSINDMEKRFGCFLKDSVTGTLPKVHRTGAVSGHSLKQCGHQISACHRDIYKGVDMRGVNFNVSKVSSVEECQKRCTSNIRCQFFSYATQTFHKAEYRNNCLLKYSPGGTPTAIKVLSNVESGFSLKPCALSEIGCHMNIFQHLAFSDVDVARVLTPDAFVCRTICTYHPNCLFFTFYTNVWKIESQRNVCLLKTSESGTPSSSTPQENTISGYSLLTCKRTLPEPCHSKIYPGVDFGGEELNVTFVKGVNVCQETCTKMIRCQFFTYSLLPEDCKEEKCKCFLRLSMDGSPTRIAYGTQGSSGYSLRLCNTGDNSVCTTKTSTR
T6 sequence (P06870 25-262): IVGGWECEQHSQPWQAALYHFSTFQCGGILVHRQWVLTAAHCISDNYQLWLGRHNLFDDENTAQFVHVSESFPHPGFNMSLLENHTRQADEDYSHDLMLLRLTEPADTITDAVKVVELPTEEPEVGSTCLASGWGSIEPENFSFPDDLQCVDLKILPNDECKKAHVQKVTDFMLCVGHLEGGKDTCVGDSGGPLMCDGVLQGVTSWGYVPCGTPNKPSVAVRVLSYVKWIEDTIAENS
T1 sequence (P00747 581-810 limits assumed): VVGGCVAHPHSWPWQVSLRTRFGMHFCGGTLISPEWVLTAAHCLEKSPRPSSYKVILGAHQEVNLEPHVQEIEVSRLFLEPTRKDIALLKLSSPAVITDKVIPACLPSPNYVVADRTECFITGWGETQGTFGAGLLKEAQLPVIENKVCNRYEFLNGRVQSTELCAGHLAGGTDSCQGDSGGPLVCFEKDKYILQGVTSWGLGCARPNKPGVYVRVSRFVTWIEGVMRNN
T1 sequence (P00747 97-580 partner limits assumed): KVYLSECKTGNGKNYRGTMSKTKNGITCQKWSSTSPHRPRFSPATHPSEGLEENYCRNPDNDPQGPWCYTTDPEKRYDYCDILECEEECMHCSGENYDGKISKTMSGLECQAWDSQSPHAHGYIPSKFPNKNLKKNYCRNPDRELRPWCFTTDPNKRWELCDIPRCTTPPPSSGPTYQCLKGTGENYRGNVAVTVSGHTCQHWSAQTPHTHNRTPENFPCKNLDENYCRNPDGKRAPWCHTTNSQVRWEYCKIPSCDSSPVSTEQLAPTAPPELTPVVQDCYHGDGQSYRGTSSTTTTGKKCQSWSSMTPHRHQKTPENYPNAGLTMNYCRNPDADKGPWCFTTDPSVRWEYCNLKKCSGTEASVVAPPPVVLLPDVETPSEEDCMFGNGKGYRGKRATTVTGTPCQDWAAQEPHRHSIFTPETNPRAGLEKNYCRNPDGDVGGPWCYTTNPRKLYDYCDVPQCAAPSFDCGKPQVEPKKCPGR
T4 sequence (P00743 234-492 limits assumed): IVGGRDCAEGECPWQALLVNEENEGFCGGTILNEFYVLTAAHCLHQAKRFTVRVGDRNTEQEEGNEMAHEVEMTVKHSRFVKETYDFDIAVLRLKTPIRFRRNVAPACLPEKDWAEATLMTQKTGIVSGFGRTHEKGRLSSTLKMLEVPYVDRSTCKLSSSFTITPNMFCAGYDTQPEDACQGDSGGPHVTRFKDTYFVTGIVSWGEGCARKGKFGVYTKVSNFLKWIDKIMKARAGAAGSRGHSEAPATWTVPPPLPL
T4 sequence (P00743 41-180 partner limits assumed): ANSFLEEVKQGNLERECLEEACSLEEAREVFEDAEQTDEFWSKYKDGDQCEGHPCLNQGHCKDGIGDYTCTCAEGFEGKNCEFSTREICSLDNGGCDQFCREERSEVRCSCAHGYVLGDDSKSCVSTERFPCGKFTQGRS

Compound	Relative reactivity with PL [1]	Relative reactivity with TH [2]	Relative reactivity with UK [3]	Relative reactivity with FXa [4]	Relative reactivity with HPK [5]	Relative reactivity with HGK [6]	Absorbance (O.D.) PL [1, 7] [O.D.]	Absorbance (O.D.) TH [2, 7] [O.D.]	Absorbance (O.D.) UK [3, 7] [O.D.]	Absorbance (O.D.) FXa [4, 7] [O.D.]	Absorbance (O.D.) HPK [5, 7] [O.D.]	Absorbance (O.D.) HGK [6, 7] [O.D.]	further results
Z--D-Lys--Phe--Arg--CHA.2HCl [PS-2200]							0.094	0.009	0.002	0.046	0.316	0.010	
Z-D-Orn-Phe-Arg-CHA [PS-2203]	14	2	0	4	59	15	0.079	0.007	0.0	0.022	0.331	0.005	Reactivity with plasmin [1]: 14%; Reactivity with thrombin [2]: 2%; Reactivity with Xa factor [4]: 4%; Reactivity with glandular kallikrein [6]: 15%
Z-D-Orn-Phe-Arg-PNA [PS-2203N, reference compound]	100	100	100	100	100	100							Absorbance (O.D.) PL ([1]; 405 nm (PNA substrates)): 0.250 O.D.; Absorbance (O.D.) TH ([2]; 405 nm (PNA substrates)): 0.056 O.D.; Absorbance (O.D.) UK ([3]; 405 nm (PNA substrates)): 0.021 O.D.; Absorbance (O.D.) FXa ([4]; 405 nm (PNA substrates)): 0.230 O.D.; Absorbance (O.D.) HPK ([5]; 405 nm (PNA substrates)): 0.250 O.D. and 0.249 O.D.; Absorbance (O.D.) HGK ([6]; 405 nm (PNA substrates)): 0.013 O.D.
i-BOC--D-Lys--Phe--Arg--CHA.2HCl [PS-2202]							0.128	0.005	0.0	0.040	0.245	0.006	

Continued, in another order:

Relative reactivity with PL [1]	Relative reactivity with TH [2]	Relative reactivity with UK [3]	Relative reactivity with FXa [4]	Relative reactivity with HPK [5]	Relative reactivity with HGK [6]	Absorbance (O.D.) PL [1, 7] [O.D.]	Absorbance (O.D.) TH [2, 7] [O.D.]	Absorbance (O.D.) UK [3, 7] [O.D.]	Absorbance (O.D.) FXa [4, 7] [O.D.]	Absorbance (O.D.) HPK [5, 7] [O.D.]	Absorbance (O.D.) HGK [6, 7] [O.D.]	Compound	further results
48	269	50	169	131	169							N=C(N)NCCC[C@H](NC(=O)[C@H](Cc1ccccc1)NC(=O)[C@H]1CCCN1)C(=O)Nc1ccc([N+](=O)[O-])cc1 [S-2302, H-D-Pro-Phe-Arg-PNA, reference compound] (H-[dP]-Phe-Arg-pNA)	Absorbance (O.D.) PL ([1]; 405 nm (PNA substrates)): 0.121 O.D.; Reactivity with plasmin [1]: 48%; Absorbance (O.D.) TH ([2]; 405 nm (PNA substrates)): 0.152 O.D.; Reactivity with thrombin [2]: 269%; Absorbance (O.D.) UK ([3]; 405 nm (PNA substrates)): 0.011 O.D.; Reactivity with urokinase ([3]; relative to Z-D-Orn-Phe-Arg-PNA (PS-2203N) as 100): 50%; Absorbance (O.D.) FXa ([4]; 405 nm (PNA substrates)): 0.389 O.D.; Reactivity with Xa factor [4]: 169%; Absorbance (O.D.) HPK ([5]; 405 nm (PNA substrates)): 0.325 O.D.; Absorbance (O.D.) HGK ([6]; 405 nm (PNA substrates)): 0.021 O.D.; Reactivity with glandular kallikrein [6]: 169%
						0.107	0.010	0.0	0.046	0.301	0.016	MOC--D-Lys--Phe--Arg--CHA.2HCl [PS-2204]	
						0.094	0.007	0.0	0.016	0.234	0.010	SBz--D-Lys--Phe--Arg--CHA.2HCl [PS-2206]	
						0.158	0.015	0.0	0.010	0.255	0.014	Tos-D-Lys-Phe-Arg-CHA.2HCl [PS-2205]	
